Data published in patent publication US4401660A, “Ester derivatives of 5-O-mycaminosyl tylonolide and method of using same” (Eli Lilly and Company, priority 1981, dated 1983).

Tests used:
[1] = tested on: Streptococcus pyogenes C203; assay: MIC, standard agar-dilution assay (Table II); type: cell-based; parameters: unit not given here
Experimental: (§1) The MIC's in Table II were determined by standard agar-dilution assays. The MIC's in Table III were obtained using a conventional broth-dilution microtiter test.

[2] = tested on: Streptococcus Group D X66; assay: MIC, standard agar-dilution assay (Table II); type: cell-based; parameters: unit not given here
Experimental: as §1

[3] = tested on: Staphylococcus aureus X1.1; assay: MIC, standard agar-dilution assay (Table II); type: cell-based; parameters: unit not given here
Experimental: as §1

[4] = tested on: Staphylococcus epidermidis EPI1; assay: MIC, standard agar-dilution assay (Table II); type: cell-based; parameters: unit not given here
Experimental: as §1

[5] = tested on: Streptococcus pneumoniae Park I; assay: MIC, standard agar-dilution assay (Table II); type: cell-based; parameters: unit not given here
Experimental: as §1

[6] = tested on: Staphylococcus epidermidis EPI2; assay: MIC, standard agar-dilution assay (Table II); type: cell-based; parameters: unit not given here
Experimental: as §1

[7] = tested on: Staphylococcus aureus V41; assay: MIC, standard agar-dilution assay (Table II); type: cell-based; parameters: unit not given here; settings: Staphylococcus aureus V41, penicillin-resistant strain
Experimental: as §1

[8] = tested on: Streptococcus Group D 9960; assay: MIC, standard agar-dilution assay (Table II); type: cell-based; parameters: unit not given here
Experimental: as §1

[9] = tested on: Staphylococcus aureus S13E; assay: MIC, standard agar-dilution assay (Table II); type: cell-based; parameters: unit not given here
Experimental: as §1

[10] = tested on: Haemophilus influenzae R252; assay: MIC, standard agar-dilution assay (Table II); type: cell-based; parameters: unit not given here; settings: Haemophilus influenzae R252, ampicillin-resistant strain
Experimental: as §1

[11] = tested on: Staphylococcus aureus X400; assay: MIC, standard agar-dilution assay (Table II); type: cell-based; parameters: unit not given here; settings: Staphylococcus aureus X400, methicillin-resistant strain
Experimental: as §1

[12] = tested on: Haemophilus influenzae Holt; assay: MIC, standard agar-dilution assay (Table II); type: cell-based; parameters: unit not given here; settings: ampicillin-sensitive strain
Experimental: as §1

Pasteurella multocida = assay: Treatment of Pasteurella infections in chicks (Table V); type: in vivo, one-day-old chicks; settings: Pasteurella multocida, sc, 4 h; 30 mg/kg by subcutaneous injection one and four hours post challenge; read-out: Deaths in Treated Chicks/Number Treated (converted)
Method in brief: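 Dosing was 30 mg/kg by subcutaneous injection, one and four hours after challenge. Day-old chicks received 0.1 ml of a 10^-3 dilution of a 20-hour tryptose broth culture of avian P. multocida subcutaneously. Nonmedicated infected chicks served as controls, ten per group.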

[13] = tested on: Pasteurella haemolytica 22C; assay: MIC, broth-dilution microtiter test (Table III); type: cell-based; parameters: unit not given here
Experimental: as §1

[14] = tested on: Pasteurella haemolytica 41D; assay: MIC, broth-dilution microtiter test (Table III); type: cell-based; parameters: unit not given here
Experimental: as §1

[15] = tested on: Pasteurella haemolytica 23C; assay: MIC, broth-dilution microtiter test (Table III); type: cell-based; parameters: unit not given here
Experimental: as §1

Streptococcus sp. 80 = assay: MIC, broth-dilution microtiter test (Table III); type: cell-based; parameters: unit not given here
Experimental: as §1

[16] = tested on: Pasteurella multocida 60A; assay: MIC, broth-dilution microtiter test (Table III); type: cell-based; parameters: unit not given here; settings: avian isolate
Experimental: as §1

Mycoplasma hyorhinis = assay: MIC, broth-dilution microtiter test (Table III); type: cell-based; parameters: unit not given here
Experimental: as §1

Staphylococcus aureus = assay: MIC, broth-dilution microtiter test (Table III); type: cell-based; parameters: unit not given here
Experimental: as §1

[17] = tested on: Pasteurella multocida 68C; assay: MIC, broth-dilution microtiter test (Table III); type: cell-based; parameters: unit not given here
Experimental: as §1

[18] = tested on: Pasteurella multocida 40G; assay: MIC, broth-dilution microtiter test (Table III); type: cell-based; parameters: unit not given here
Experimental: as §1

[19] = tested on: Pasteurella multocida 22A; assay: MIC, broth-dilution microtiter test (Table III); type: cell-based; parameters: unit not given here
Experimental: as §1

[20] = tested on: Pasteurella multocida 17E; assay: MIC, broth-dilution microtiter test (Table III); type: cell-based; parameters: unit not given here; settings: bovine isolate
Experimental: as §1

Mycoplasma gallisepticum = assay: MIC, broth-dilution microtiter test (Table III); type: cell-based; parameters: unit not given here
Experimental: as §1

Mycoplasma synoviae = assay: MIC, broth-dilution microtiter test (Table III); type: cell-based; parameters: unit not given here
Experimental: as §1

Structure (SMILES)	minimal inhibitory concentration (MIC) [1]	minimal inhibitory concentration (MIC) [2]	minimal inhibitory concentration (MIC) [3]	minimal inhibitory concentration (MIC) [4]	minimal inhibitory concentration (MIC) [5]	minimal inhibitory concentration (MIC) [6]	minimal inhibitory concentration (MIC) [7]	minimal inhibitory concentration (MIC) [8]	minimal inhibitory concentration (MIC) [9]	minimal inhibitory concentration (MIC) [10]	minimal inhibitory concentration (MIC) [11]	minimal inhibitory concentration (MIC) [12]	mortality at 30 mg/kg (Pasteurella multocida)	minimal inhibitory concentration (MIC) [13]	minimal inhibitory concentration (MIC) [14]	minimal inhibitory concentration (MIC) [15]	minimal inhibitory concentration (MIC) (Streptococcus sp. 80)	minimal inhibitory concentration (MIC) [16]	minimal inhibitory concentration (MIC) (Mycoplasma hyorhinis)	minimal inhibitory concentration (MIC) (Staphylococcus aureus)	further results
CCC1OC(=O)CC(O)C(C)C(OC2OC(C)C(O)C(N(C)C)C2OC(C)=O)C(CC=O)CC(C)C(=O)C=CC(C)=CC1COC(=O)CCCC(=O)OC (stereo not shown) [Compound 71]	0.25	0.25	0.25	0.25	0.03	0.25	0.25	0.5	0.25	2	0.25	2	60%	50	12.5	12.5	1.56	6.25	12.5	0.78	minimal inhibitory concentration (MIC) [17]: 6.25; minimal inhibitory concentration (MIC) [18]: 3.12; minimal inhibitory concentration (MIC) [19]: 3.12; minimal inhibitory concentration (MIC) [20]: 6.25; minimal inhibitory concentration (MIC) (Mycoplasma gallisepticum): 0.195; minimal inhibitory concentration (MIC) (Mycoplasma synoviae): 0.78
CCC1OC(=O)CC(O)C(C)C(OC2OC(C)C(O)C(N(C)C)C2O)C(CC=O)CC(C)C(=O)C=CC(C)=CC1COC(=O)Cc1cc(OC)ccc1OC (stereo not shown) [Compound 63]	0.06	0.125	0.125	0.25	0.03	0.25	0.25	0.25	0.25	2	0.25	1	75%	6.25	12.5	6.25	0.195	3.12	1.56	1.56	minimal inhibitory concentration (MIC) [17]: 6.25; minimal inhibitory concentration (MIC) [18]: 3.12; minimal inhibitory concentration (MIC) [19]: 6.25; minimal inhibitory concentration (MIC) [20]: 6.25; minimal inhibitory concentration (MIC) (Mycoplasma gallisepticum): 0.39; minimal inhibitory concentration (MIC) (Mycoplasma synoviae): < 0.05
CCC1OC(=O)CC(O)C(C)C(OC2OC(C)C(O)C(N(C)C)C2OC(C)=O)C(CC=O)CC(C)C(=O)C=CC(C)=CC1COC(=O)COc1ccccc1 (stereo not shown) [Compound 35]	0.06	0.125	0.125	0.125	0.03	0.125	0.125	0.125	0.125	1	0.125	1	10%	3.12	1.56	3.12	0.097	1.56	3.12	0.39	minimal inhibitory concentration (MIC) [17]: 1.56; minimal inhibitory concentration (MIC) [18]: 3.12; minimal inhibitory concentration (MIC) [19]: 6.25; minimal inhibitory concentration (MIC) [20]: 1.56; minimal inhibitory concentration (MIC) (Mycoplasma gallisepticum): < 0.05; minimal inhibitory concentration (MIC) (Mycoplasma synoviae): 0.097
CCC(=O)OCC1C=C(C)C=CC(=O)C(C)CC(CC=O)C(OC2OC(C)C(OC(=O)CC)C(N(C)C)C2OC(=O)CC)C(C)C(O)CC(=O)OC1CC (stereo not shown) [Compound 8, 2',4',23-Tri-O-propionyl-OMT]	0.25	0.5	0.25	0.25	0.25	0.25	0.5	0.5	0.5	4	0.5	2	60%	3.12	3.12	6.25	0.195	1.56	0.78	0.39	minimal inhibitory concentration (MIC) [17]: 1.56; minimal inhibitory concentration (MIC) [18]: 1.56; minimal inhibitory concentration (MIC) [19]: 3.12; minimal inhibitory concentration (MIC) [20]: 1.56; minimal inhibitory concentration (MIC) (Mycoplasma gallisepticum): 0.048; minimal inhibitory concentration (MIC) (Mycoplasma synoviae): 0.048
CCC1OC(=O)CC(O)C(C)C(OC2OC(C)C(O)C(N(C)C)C2O)C(CC=O)CC(C)C(=O)C=CC(C)=CC1COS(=O)(=O)c1ccc(NC(C)=O)cc1 (stereo not shown) [Compound 56, 23-O-(p-Acetamidobenzenesulfonyl)-OMT]	0.125	1	1	0.5	0.06	2	2	1	1	2	2	2	100%	6.25	6.25	6.25	0.195	3.12	12.5	0.78	minimal inhibitory concentration (MIC) [17]: 3.12; minimal inhibitory concentration (MIC) [18]: 6.25; minimal inhibitory concentration (MIC) [19]: 6.25; minimal inhibitory concentration (MIC) [20]: 3.12; minimal inhibitory concentration (MIC) (Mycoplasma gallisepticum): 0.39; minimal inhibitory concentration (MIC) (Mycoplasma synoviae): 0.78
